Consider 11 compounds from BindingDB's records for doi:10.3109/14756361003698147 (Shandong University, 2012).

The target of experiment [1] is 72 kDa type IV collagenase (Homo sapiens, UniProt P08253). As to the kind of experiment: In Vitro MMP-2 Inhibition Assay. The conditions noted are these: pH 8.5; 25 °C.
The next experiment concerns the target T1, Aminopeptidase N (Sus scrofa, UniProt P15145).
T1 sequence (P15145 whole entry): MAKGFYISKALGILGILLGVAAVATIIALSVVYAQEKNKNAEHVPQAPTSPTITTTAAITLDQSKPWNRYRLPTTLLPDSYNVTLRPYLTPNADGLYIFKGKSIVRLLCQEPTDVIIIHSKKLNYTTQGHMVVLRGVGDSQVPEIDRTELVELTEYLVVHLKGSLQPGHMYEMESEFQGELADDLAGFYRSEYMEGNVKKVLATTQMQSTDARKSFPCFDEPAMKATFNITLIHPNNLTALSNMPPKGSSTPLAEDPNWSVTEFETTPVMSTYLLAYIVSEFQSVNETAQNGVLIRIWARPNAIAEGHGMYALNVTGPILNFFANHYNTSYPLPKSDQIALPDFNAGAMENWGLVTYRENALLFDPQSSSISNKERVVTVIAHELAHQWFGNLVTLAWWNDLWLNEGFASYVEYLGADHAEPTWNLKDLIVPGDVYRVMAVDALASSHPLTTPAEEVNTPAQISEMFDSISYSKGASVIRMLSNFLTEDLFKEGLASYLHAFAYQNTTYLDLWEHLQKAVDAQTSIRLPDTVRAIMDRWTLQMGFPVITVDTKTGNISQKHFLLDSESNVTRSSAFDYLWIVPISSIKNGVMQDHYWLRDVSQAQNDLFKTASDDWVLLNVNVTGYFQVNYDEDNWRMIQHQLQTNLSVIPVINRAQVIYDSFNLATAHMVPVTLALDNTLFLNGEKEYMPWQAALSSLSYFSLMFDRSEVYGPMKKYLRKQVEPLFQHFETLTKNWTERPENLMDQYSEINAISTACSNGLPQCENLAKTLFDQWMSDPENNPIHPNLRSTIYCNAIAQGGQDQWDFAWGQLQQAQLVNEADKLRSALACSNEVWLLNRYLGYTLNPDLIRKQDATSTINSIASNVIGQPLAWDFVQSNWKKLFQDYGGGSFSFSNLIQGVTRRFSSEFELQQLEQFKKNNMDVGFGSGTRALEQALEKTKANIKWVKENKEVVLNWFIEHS
As to the kind of experiment: In Vitro APN Inhibition Assay. The method, then: Allcompounds were pre-incubated with APN on a 96-well plate for 30 min. […] Fifteen minutes later, the absorbance (OD405) of the wells was recorded on a microplate reader.

Structures can show the parent of a compound that is named as a salt.

72 kDa type IV collagenase, sequence (P08253 whole entry): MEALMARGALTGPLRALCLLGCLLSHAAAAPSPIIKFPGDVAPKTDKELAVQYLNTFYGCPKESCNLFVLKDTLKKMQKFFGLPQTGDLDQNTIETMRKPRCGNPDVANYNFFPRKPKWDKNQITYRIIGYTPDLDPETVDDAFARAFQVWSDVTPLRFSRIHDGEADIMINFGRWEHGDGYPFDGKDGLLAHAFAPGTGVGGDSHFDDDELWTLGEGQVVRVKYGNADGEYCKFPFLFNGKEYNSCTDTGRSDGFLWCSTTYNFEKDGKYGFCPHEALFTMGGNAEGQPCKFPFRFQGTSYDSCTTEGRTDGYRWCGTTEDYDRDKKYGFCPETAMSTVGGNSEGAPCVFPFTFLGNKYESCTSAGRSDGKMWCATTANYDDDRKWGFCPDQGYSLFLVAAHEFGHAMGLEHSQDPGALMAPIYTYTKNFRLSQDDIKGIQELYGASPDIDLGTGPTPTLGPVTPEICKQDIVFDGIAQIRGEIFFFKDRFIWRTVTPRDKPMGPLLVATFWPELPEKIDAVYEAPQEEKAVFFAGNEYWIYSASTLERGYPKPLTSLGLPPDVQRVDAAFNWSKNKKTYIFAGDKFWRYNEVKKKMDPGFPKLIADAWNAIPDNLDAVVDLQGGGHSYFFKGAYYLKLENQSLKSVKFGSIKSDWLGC

With `CC(C)C[C@H](NC(=O)[C@@H](O)[C@H](N)Cc1ccccc1)C(=O)O`, inhibition in experiment [1] was half-maximal at 167 µM (IC50). For the compound `CC(C)C[C@H](NC(=O)[C@@H](O)CN)C(=O)O`, the figures for the IC50 (at Aminopeptidase N; in experiment [1]) were 199 µM and 364 µM, respectively. On the same counts, the results for `NC[C@H](O)C(=O)N[C@@H](Cc1ccccc1)C(=O)O` [(2S)-2-[(2S)-3-amino-2-hydroxypropanamido]-3-phenylpropanoic acid (12a)] are 249 µM and 710 µM. On the same counts, the results for `NC[C@H](O)C(=O)N[C@@H](Cc1ccccc1)C(=O)OCc1ccccc1` [L-Isoseryl-L- phenylalanine benzyl ester hydrochloride (11c)] are 99.5 µM and 329 µM. On the same counts, the results for `CC(C)C[C@H](NC(=O)[C@@H](O)CN)C(=O)OCc1ccccc1` [L-Isoseryl-L-leucine benzyl ester hydrochloride (11d)] are 195 µM and 1000 µM. Turning to `COC(=O)[C@H](CC(C)C)NC(=O)[C@@H](O)CN` [L-Isoseryl-L-leucine methyl ester hydrochloride (11b)], the results for the half-maximal inhibitory concentration (IC50) (at Aminopeptidase N; in experiment [1]) were 229 µM and 682 µM, respectively.

As to `CC(C)C[C@H](NC(=O)[C@@H](O)CN)C(=O)N[C@@H](Cc1ccccc1)C(=O)O` [L-Isoseryl-L-leucyl-L-phenylalanine hydrochloride (14a)], the IC50 was 20.9 µM on Aminopeptidase N and 115 µM in experiment [1]. On to `COC(=O)[C@H](Cc1ccccc1)NC(=O)[C@H](CC(C)C)NC(=O)[C@@H](O)CN` [L-Isoseryl-L-leucyl-L-phenylalanine methyl ester hydrochloride (13a)], for which the figures for the IC50 (on Aminopeptidase N; in experiment [1]) were 140 µM and 126 µM, respectively. On the same counts, the results for `CC(C)C[C@H](NC(=O)[C@H](Cc1ccccc1)NC(=O)[C@@H](O)CN)C(=O)OCc1ccccc1` [L-Isoseryl-L-phenylalanyl-L-leucine benzyl ester hydrochloride (13d)] are 32.2 µM and 334 µM.

Turning to `CC(C)C[C@H](NC(=O)[C@H](Cc1ccccc1)NC(=O)[C@@H](O)CN)C(=O)O` [L-Isoseryl-L-phenylalanyl-L-leucine hydrochloride (14b)], the IC50 on Aminopeptidase N was 12.2 µM; in experiment [1] it was 203 µM. For `COC(=O)[C@H](Cc1ccccc1)NC(=O)[C@@H](O)CN` [Methyl (2S)-2-[(2S)-3-amino-2-hydroxypropanamido]-3-phenylpropanoate (11a)], the concentration for half-maximal inhibition (IC50) against Aminopeptidase N was 302 µM; in experiment [1], > 1000 µM.
